Measurements: patent US10261017B2, “Methods for detecting and categorizing skin sensitizers” (University of Mississippi, priority 2014, dated 2019)
Several values for one entry are separate records, joined by “and”; a condition that tells them apart may be missing. Equal entries are not always repeated. Where two headings read alike, the source gives them in different places. Marks after values point to notes of the source that are not given here.

Assays:
[1] = Microplate spectrophotometric method (DCYA assay), fluorescence end-point; conditions: for Fluorescence response, Reaction (R), average of 9 readings: DCYA + test article + pH 10 buffer + resin; for DCYA 100-RI: RI = reactivity index, 2 equiv. electrophile, pH 10 buffer; for DCYA binary classification: FN: false negative; for DCYA binary classification: FP: false positive; for DCYA binary classification: TN: true negative; for DCYA binary classification: TP: true positive, positive if 100-RI <95; for DCYA assay reactivity / classification in words: microplate spectrophotometric method
[2] = NMR method: depletion of electrophile signal on reaction with DCYA; conditions: for Conversion rate: 0.1 M DCYA, 0.1 M L-carvone
Source text: The described example can be applied to pure chemicals and mixtures. The method includes the acquisition of at least one NMR spectrum, mixing an electrophile and a nucleophile to acquire an array of control spectra and an addition of catalyst to record an array of reaction spectra. It also includes the quantification of at least one signal and the comparison of the signal with a control and the classification of the reaction based on the depletion of potential sensitizer based on the quantified residual signal.
2,5-Dimethylfuran was used as internal standard. When necessary, characterization of the product(s) formed during the reaction(s) was performed by homonuclear ^1H connectivities using 2D-COSY experiments. […] Two- and three bond ^1H-^13C connectivities were determined by gradient-HMBC experiments in which the evolution period for long-range ^1H-^13C coupling constants was optimized for a ^2,3JC,H of 8 Hz. Through-space ^1H connectivities were determined using a NOESY experiment with a mixing time of 0.450 s. […] Toronto, Canada].
In a 3 mm NMR tube, 1 volume of DCYA (100) mM in CDCl3) was mixed with one volume of sensitizer (100 mM in CDCl3) to give a final concentration of 50 mM for both DCYA and the sensitizer. Control ^1H NMR spectra (reference spectra) were recorded at regular intervals of for a minimum of 5 min. […] All spectra were recorded at constant temperature. All experiments were conducted using the manufacturer's standard presaturation pulse programs and experimental conditions were chosen as explained in NMR spectroscopy section. The progress of the reaction was followed by the diminished peak areas of the resonances for the signal of interest. The spectra were phased, referenced, and integrated using NMR data elaboration software. The structural characterizations of the resulting adducts were confirmed by conducting additional 2D-NMR experiments when necessary.
Covalent reaction of DCYA with carvone is dependent on the activation of the nucleophilic group (ex. sulfhydryl group to the reactive thio-anion) under basic conditions. This reaction is strongly dependent on the nature of the nucleophile and may be modulated by careful choice of the model nucleophile and the reaction conditions.
The control spectra are used as reference spectra (FIG. 3A). All the spectra were subjected to automatic phase and baseline correction using a Bernstein polynomial fit (order 3). After these two steps, all the spectra were integrated over the areas of interest. […] Both vinylic and adduct peak areas were normalized relative to the internal standard signal peaks. […] The concentrations of both electrophile and adduct were then plotted as percentage against time (in minutes). (FIG. 5).

[3] = TLC monitoring of DCYA reactions with electrophiles; conditions: pH 10 buffer, 1-2.5 equiv. electrophile
Source text: For visualization purposes, the controls, blank and reactions were monitored by TLC on silica gel plates. A known volume of each sample was loaded on a silica gel plate and eluted with appropriate solvent system. The TLC plates were examined λ366 for the presence of the yellow fluorescence spots corresponding DCYA, its dimer or possible reaction products.
In order to minimize the competition between auto-dimerization [(DCYA)2] and nucleophilic addition, the reaction time and the electrophile:nucleophile stoichiometry were optimized. Massoia lactone at different concentrations was used to monitor the progress of the reaction by TLC (FIG. 11). […] In order to adequately discriminate between compounds with variable electrophilic strength, the assay was optimized using 2 equivalents of electrophile.

[4] = Fluorescent response of DCYA in acetonitrile over time; type: physicochemical; conditions: micromolar solutions, after 3 h at room temperature
Description: The fluorescent responses of DCYA and DCYA disulfide in ACN were investigated at different concentrations using 1-300 μL/well in a 96 microplate reader at room temperature. Pure acetonitrile was used as a solvent control. The optimum excitation and emission wavelength combination was determined by performing excitation and emission scans. […] At these wavelengths, no solvent interference was observed. […] A linear response for DCYA was observed between 5-80 μM ([…]) concentrations with a R^2=0.995.

[5] = cited from earlier work
[6] = system: thiol peptide
[7] = pH 10
[8] = system: ARE-dependent gene activity in a recombinant cell line; conditions: cited from earlier work
[9] = system: thiol peptide; conditions: cited from earlier work
[10] = cited from earlier work; remark: listed apart in the source
[11] = system: thiol peptide; assay: Cys-DPRA (Direct Peptide Reactivity Assay), literature data; conditions: for Cys-DPRA binary classification: FN: false negative; for Cys-DPRA binary classification: FP: false positive; for Cys-DPRA binary classification: TN: true negative; for Cys-DPRA binary classification: TP: true positive
[12] = based on depletion of electrophile signal at 30 min
[13] = conversion of test chemical at 90 min, 1 equiv. DCYA, 0.1 equiv. DBN, CDCl3

CCCCC[C@@H]1CC=CC(=O)O1 [Massoia lactone]
Fluorescence response, Reaction (R), average of 9 readings ([1]; listed as ML): 6064.127 RFU and 6064 RFU
DCYA 100-RI [1]: 12.8
NMR assay reactivity / classification in words [2]: moderate to strong skin sensitizer
Conversion at t30 (depletion of electrophile signal) ([2]; at 30 min, 1 equiv. DCYA, listed as Massoialactone): 59%
Conversion at t30 (depletion of electrophile signal) ([2]; at 30 min, 1 equiv. DCYA, listed as massoia lactone): 60%
NMR Classification [2, 12]: Moderate-strong
NMR Method conversion [2, 13]: 66%
TLC: adduct formation with DCYA [3]: only a partial reaction was achieved

CN(C)c1cccc2c(S(=O)(=O)NCCS)cccc12 [DCYA, 5-(dimethylamino)-N-(2-mercaptoethyl)naphthalene-1-sulfonamide]
Loss of fluorescence response [4]: 1.5-3.0%

O=CC=Cc1ccccc1 [Cinnamaldehyde]
LLNA (EC3) ([5]; mouse, in vivo): 3%
LLNA Classification ([5]; mouse, in vivo): Moderate
LLNA EC3 ([5]; mouse, in vivo): 3%
NMR Classification [2]: Moderate
NMR assay reactivity / classification in words [2]: moderate sensitizer
Conversion at t30 (depletion of electrophile signal) ([2]; at 30 min, 1 equiv. DCYA): 50%
NMR Method conversion [2, 13]: 50%
Cys-DPRA binary classification: FN [6]: 0
Cys-DPRA binary classification: FP [6]: 0
Cys-DPRA binary classification: TN [6]: 0
Cys-DPRA binary classification: TP [6]: 1
DCYA 100-RI ([7]; 2.1 mM): 85.1
DCYA binary classification: FN ([7]; 2.1 mM): 0
DCYA binary classification: FP ([7]; 2.1 mM): 0
DCYA binary classification: TN ([7]; 2.1 mM): 0
DCYA binary classification: TP ([7]; 2.1 mM): 1
KeratinoSens ™ EC3 [8]: 63.94 µM
Cys-DPRA % Pept. remain. [9]: 29.4%
Cys-DPRA, percentage of thiol peptide depleted [9]: 70.6%

OCCc1ccc(O)c(O)c1 [3-Hydroxytyrosol]
LLNA (EC3) ([5]; mouse, in vivo): 0.6%
LLNA Classification ([5]; mouse, in vivo): Strong
LLNA EC3 ([5]; mouse, in vivo): 0.6%
NMR Classification [2]: Non^$
NMR assay reactivity / classification in words [2]: almost unreactive
Conversion at t30 (depletion of electrophile signal) ([2]; at 30 min, 1 equiv. DCYA): 6%
NMR Method conversion [2, 13]: 6%
DCYA 100-RI ([7]; 2.1 mM): 97.2
Cys-DPRA reactivity in words [9]: non-reactive

C=C1C(=O)O[C@@H]2C[C@@]3(C)CCC[C@H](C)C3=C[C@H]12 [Alantolactone]
Conversion at t30 (depletion of electrophile signal) [2]: 99%
NMR Classification [2]: Strong
NMR Method conversion [2]: >99* %
DCYA 100-RI [7]: −6.7
Result in human patch tests ([10]; in vivo): Positive in human patch tests^6

C=C(C)[C@@H]1CC=C(C)C(=O)C1 [L-Carvone]
LLNA Classification ([5]; published literature): Moderate
LLNA EC3 ([5]; reported results (Table 7)): 13%
DCYA 100-RI [1]: 88.4
DCYA binary classification: FN [1]: 0
DCYA binary classification: FP [1]: 0
DCYA binary classification: TN [1]: 0
DCYA binary classification: TP [1]: 1
Depletion ([2]; 0.05 equivalents DBN, chloroform): 23%
Depletion ([2]; 0.1 equivalents DBN, chloroform): 35%
Depletion ([2]; 0.2 equivalents DBN, chloroform): 28%
Conversion rate ([2]; DMSO, 0.1 equiv. DBN): 42%
Conversion rate ([2]; acetonitrile, 0.1 equiv. DBN): 47%
Reaction between DCYA and carvone ([2]; aqueous pH 10 buffer (5% v/v) in acetonitrile, after 90 minutes): 42%
Conversion at t30 (depletion of electrophile signal) ([2]; at 30 min, 1 equiv. DCYA): 16%
NMR Classification [2, 12]: Weak
NMR Method conversion [2, 13]: 16%
Electrophile depletion ([2]; excess of DCYA, chloroform, 0.1 equiv. DBN): around 37%
Depletion ([2]; excess of electrophile, 2 equiv., chloroform, 0.1 equiv. DBN): 21%
Depletion ([2]; excess of electrophile, 4 equiv., chloroform, 0.1 equiv. DBN): 8%
KeratinoSens ™ EC3 ([8]; published literature (Table 1)): 258.71^20 μM
Cys-DPRA, percentage of thiol peptide depleted ([9]; adopted from the literature): 26.3^20%
Cys-DPRA binary classification: FN [11]: 0
Cys-DPRA binary classification: FP [11]: 0
Cys-DPRA binary classification: TN [11]: 0

C=C1C(=O)O[C@@H]2/C=C(\C)CC/C=C(\C)CC[C@@H]12 [Costunolide]
DCYA 100-RI [1]: −8.5
DCYA binary classification: FN [1]: 0
DCYA binary classification: FP [1]: 0
DCYA assay reactivity / classification in words [1]: strongly reactive
DCYA assay reactivity / classification in words ([1]; listed as costunolide): strong sensitizers
DCYA binary classification: TN [1]: 0
DCYA binary classification: TP [1]: 1
NMR Classification [2]: Strong
NMR Method conversion ([2]; 10 min, 50 mM): >97* %
Conversion at t30 (depletion of electrophile signal) ([2]; 30 min, 50 mM): 97%
Result in human patch tests ([10]; reported in literature): Positive in human patch tests^6

O=c1c(O)c(O)c1=O [Squaric acid]
LLNA EC3 ([5]; mouse, in vivo): 4.3%
Cys-DPRA binary classification: FN [6]: 0
Cys-DPRA binary classification: FP [6]: 0
Cys-DPRA binary classification: TN [6]: 0
Cys-DPRA binary classification: TP [6]: 1
DCYA 100-RI [7]: 91.1
KeratinoSens ™ EC3 [8]: >2000 µM
Cys-DPRA % Pept. remain. [9]: 53.1%

Cn1sccc1=O [2-Methyl-4-isothiazolin-3-one]
LLNA EC3 ([5]; reported results (Table 7)): 1.9%
DCYA 100-RI ([7]; 2.1 mM): 16.4
DCYA binary classification: FN ([7]; 2.1 mM): 0
DCYA binary classification: FP ([7]; 2.1 mM): 0
DCYA binary classification: TN ([7]; 2.1 mM): 0
DCYA binary classification: TP ([7]; 2.1 mM): 1
KeratinoSens ™ EC3 ([8]; reported results (Table 7)): 29.56 µM
Cys-DPRA % Pept. remain. ([9]; reported results from the literature): 2.1%
Cys-DPRA binary classification: FN [11]: 0
Cys-DPRA binary classification: FP [11]: 0
Cys-DPRA binary classification: TN [11]: 0
Cys-DPRA binary classification: TP [11]: 1

O=c1ccc2ccccc2o1 [Coumarin]
Fluorescence response, Reaction (R), average of 9 readings [1]: 1996.775 RFU
DCYA 100-RI [1]: 97.2
DCYA binary classification: FN [1]: 0
DCYA binary classification: FP [1]: 0
DCYA binary classification: TN [1]: 1
DCYA binary classification: TP [1]: 0
NMR assay reactivity / classification in words [2]: almost unreactive
Conversion at t30 (depletion of electrophile signal) ([2]; 30 min, 50 mM): 0%
NMR Method conversion ([2]; 90 min, 50 mM): 0%
NMR Classification [2, 12]: Non
Cys-DPRA binary classification: FN [6]: 0
Cys-DPRA binary classification: FP [11]: 0
Cys-DPRA binary classification: TN [11]: 1
Cys-DPRA binary classification: TP [11]: 0
